Experimental findings from US12697366B2, “Thermogenic compositions and methods” (Ohio State Innovation Foundation, priority 2016, dated 2026) are described below.

Assay [1] has as its system PPARα-LBD. Nature of the assay: PPARα-LBD luciferase reporter in transiently transfected HEK293 cells. The conditions noted are these: EREG, 12 hrs. The assay is classed as cell-based, human. As to the method:
FIGS. 11A to 11I show adipokine Ereg is bilaterally associated with obesity and thermogenesis and activates PPARα. […] Microarray gene analysis was performed using Affymetrix microarray. FIG. 11B: Ereg expression was measured in non-differentiated and differentiated (day 5) 3T3-L1 adipocytes (Mann-Whitney test) using a customized NanoString mouse panel. FIG. 11C: Ereg expression was measured in differentiated (day 5) 3T3-L1 and Aldh1a1^−/− adipocytes by Taqman and normalized to TATA box protein (TBP). FIG. 11D: Plasma EREG concentrations were measured in mice from Study 1 by western blot. […] FIG. 11E: Plasma EREG concentrations were measured and quantified in iAb of WT and ob/ob mice from Study 2 by western blot (n=5 per each group). […] FIG. 11F: EREG was measured in iAb, subcutaneous and brown fat by western blot. Fat pads were dissected from WT mice on regular chow (Study 1). FIG. 11G: Ucp2 and Ucp1 expression was measured in differentiated 3T3-L1 adipocytes (day 5) stimulated with vehicle (PBS) or recombinant EREG (50 ng/mL) added in the differentiation medium I and II. Expression level were measured by Taqman and normalized by TBP. FIGS. 11H and 11I: HEK293 cells were transiently transfected with PPARα-LBD, UASTK-luciferase, and renilla. […] Data represents % PPARα-LBD activation. Asterisks indicate significant difference (p<0.05) compared to vehicle control, #, indicates statistical difference between PPARα-LBD activation by EREG alone and in the presence of inhibitors. Data represent mean±SD. The Mann-Whitney test was used throughout these studies for group comparison.
HEK293 cells ([…] cells, 24-well plates) were used for transient transfection experiments. Cells were transfected with human PPARα-LBD construct, yeast UASTK luciferase reporter (SwitchGear Genomics, Menlo Park, CA), using Fugene (Roche Applied Science, Indianapolis, IN). Transfections were carried out in OptiMeM (Invitrogen, Carlsbad, CA) medium for 12 hours as described previously. Luciferase was measured using Promega assay according to manufacturer's instructions
On the technique in general: In a reporter assay the amount or activity of a reporter protein is the signal.

For assay [2], the system named is iAb (omental) fat explants. Nature of the assay: LEP release from iAb (omental) fat explants of an obese patient (ELISA). The conditions noted are these: different EREG concentrations, 2 h. The assay is classed as cell-based, human. The method, then:
FIGS. 14A to 14N show EREG induces expression of thermogenic and PPARα-target genes, suppresses inflammatory genes, and stimulates leptin secretion. FIGS. 14A to 14H and 14L: Markers for thermogenesis, adipogenesis, and inflammatory genes were analyzed using homogenates from whole iAb fat pads isolated from Veh- (white bars) and EREG-treated (black bars) DIO mice (Study 3). Gene expression was quantified using a customized NanoString panel. Data represent mean±SD, n.s.,—non-significant. FIG. 14I: LEP was measured in plasma in the same mice by ELISA. Data (mean±SD) are shown as percent to control (Veh, 100%) and is indicated as a dashed line. FIG. 14J: LEP release after stimulation with different concentrations of recombinant human EREGs was measured in explants of iAb (omental) tissue obtained from an obese insulin resistant patient. FIG. 14K: LEP release after stimulation of explants from same donor with and without EREG (50 ng/mL) in the presence and absence of insulin (Ins, 10 μg/mL), MAPK-I, EGFR-I, PI3K-I. Inhibitors concentrations were described in FIG. 1. FIG. 14M: LEP release after stimulation of iAb fat explants (2 h) from WT mice with different concentrations of recombinant mouse EREG. Experiment was repeated in three different WT mice. Data (mean±SD) are shown as percent to control (Veh, 100%). FIG. 14N: LEP release following stimulation of iAb fat explants (2 h) from WT mice with inhibitors of EGFR (10 μM) and MAPK (10 μM) in the presence or absence of EREG (50 ng/ml). Data (mean±SD) are shown as percent to control (Veh, 100%).
Abdominal fat tissue obtained from an obese patient was excised into 35 mg sections for stimulation with EREG. Explants were stimulated with EREG in DMEM containing 1% FBS for 2 h. Media was collected after 2 h, lyophilized and reconstituted in 120 μL deionized water for leptin detection using ELISA kit (Alpco, Salem, NH).
(In general: ELISA stands for enzyme-linked immunosorbent assay.)

In the case of “EREG: Epiregulin, member of the epidermal growth factor family; recombinant mouse or human protein”, the “induction of PPARα (PPARα-LBD activation)” value in assay [1] was “dose dependent induction”. For the same substance, the “release of LEP from iAb fat explants” value in assay [2] is given as “dose dependent release”.
